According to PubChem BioAssay AID248 (DTP/NCI, 2004):
Where “and” joins values, the source holds several entries; their conditions need not be identical. Equal values may be shown once. Inconclusive results and toxic doses are left out. No stated cut-off is given here; in the data, active means T/C of 150% or more; inactive means T/C below 125%.

Test system: L1210 leukemia ip in BDF1 mice, survival T/C
Assay: NCI In Vivo Anticancer Drug Screen. Data for tumor model L1210 Leukemia (intraperitoneal) in B6D2F1 (BDF1) mice
Settings: endpoint: mean survival time, higher = longer survival
Method in brief: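 Tumor was transplanted into mice, which were then dosed with test compound or vehicle alone. Survival was recorded for each group, and the treated figure was expressed relative to the control figure.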

[1] = dose: 100.0 mg/kg/injection, schedule: Q01DX009 (ip), vehicle: Klucel (hydroxypropylcellulose) (HPC)
[2] = dose: 200.0 mg/kg/injection, schedule: Q01DX009 (ip), vehicle: Klucel (hydroxypropylcellulose) (HPC)
[3] = dose: 400.0 mg/kg/injection, schedule: Q01DX009 (ip), vehicle: Klucel (hydroxypropylcellulose) (HPC)
[4] = dose: 100.0 mg/kg/injection, schedule: Q01DX009 (ip), vehicle: saline with Tween-80
[5] = dose: 100.0 mg/kg/injection, schedule: Q04DX003 (ip), vehicle: saline with Tween-80
[6] = dose: 200.0 mg/kg/injection, schedule: Q01DX009 (ip), vehicle: saline with Tween-80
[7] = dose: 200.0 mg/kg/injection, schedule: Q04DX003 (ip), vehicle: saline with Tween-80
[8] = dose: 400.0 mg/kg/injection, schedule: Q04DX003 (ip), vehicle: saline with Tween-80
[9] = dose: 100.0 mg/kg/injection, schedule: Q01DX001 (ip), vehicle: Klucel (hydroxypropylcellulose) (HPC)
[10] = dose: 200.0 mg/kg/injection, schedule: Q01DX001 (ip), vehicle: Klucel (hydroxypropylcellulose) (HPC)
[11] = dose: 100.0 mg/kg/injection, schedule: Q01DX001 (ip), vehicle: saline
[12] = dose: 200.0 mg/kg/injection, schedule: Q01DX001 (ip), vehicle: saline
[13] = dose: 400.0 mg/kg/injection, schedule: Q01DX001 (ip), vehicle: saline
[14] = dose: 100.0 mg/kg/injection, schedule: Q01DX001 (ip), vehicle: other
[15] = dose: 200.0 mg/kg/injection, schedule: Q01DX001 (ip), vehicle: other
[16] = dose: 400.0 mg/kg/injection, schedule: Q01DX001 (ip), vehicle: other
[17] = dose: 100.0 mg/kg/injection, schedule: Q04DX003 (ip), vehicle: Klucel (hydroxypropylcellulose) (HPC)
[18] = dose: 200.0 mg/kg/injection, schedule: Q04DX003 (ip), vehicle: Klucel (hydroxypropylcellulose) (HPC)
[19] = dose: 400.0 mg/kg/injection, schedule: Q04DX003 (ip), vehicle: Klucel (hydroxypropylcellulose) (HPC)

Measured: T/C

O=S(=O)(O)CCNC(=S)C(=S)NCCS(=O)(=O)O
inactive: dose: 100.0 mg/kg/injection, schedule: Q04DX002 (ip), vehicle: saline 101 % of control | dose: 200.0 mg/kg/injection, schedule: Q04DX002 (ip), vehicle: saline 101 % of control | dose: 400.0 mg/kg/injection, schedule: Q04DX002 (ip), vehicle: saline 101 % of control

S=C(c1cccs1)N1CCOCC1
inactive: dose: 100.0 mg/kg/injection, schedule: Q04DX003 (ip), vehicle: gum acacia 93 % of control | dose: 200.0 mg/kg/injection, schedule: Q04DX003 (ip), vehicle: gum acacia 100 % of control | dose: 400.0 mg/kg/injection, schedule: Q04DX003 (ip), vehicle: gum acacia 91 % of control

CN(C)N=Nc1ccc(C(=O)Oc2ccc3c(c2)CCC2C3CCC3(C)C(=O)CCC23)cc1 (centres undefined)
inactive: [1] 90 % of control | [2] 92 % of control | [3] 88 % of control

CC(=O)OCC(OC(C)=O)C(OC1OC(COC(C)=O)C(OC(C)=O)C(OC(C)=O)C1OC(C)=O)C(OC(C)=O)C(C=O)OC(C)=O (centres undefined)
inactive: dose: 50.0 mg/kg/injection, schedule: Q01DX009 (ip), vehicle: Klucel (hydroxypropylcellulose) (HPC) 96 % of control | [1] 89 % of control | [4] 102 % of control | [5] 102 % of control | [2] 89 % of control | [6] 102 % of control | [7] 105 % of control | dose: 400.0 mg/kg/injection, schedule: Q01DX009 (ip), vehicle: saline with Tween-80 102 % of control | [8] 94 % of control

CC1(O)CC(=O)C2C3C=CC(C3)C21 (centres undefined)
inactive: dose: 75.0 mg/kg/injection, schedule: Q01DX001 (ip), vehicle: other 98 % of control | dose: 150.0 mg/kg/injection, schedule: Q01DX001 (ip), vehicle: other 104 % of control

CCCCCCCC(=O)Nc1cc(C(F)(F)F)ccc1Cl
inactive: [5] 92 % of control | [7] 98 % of control | [8] 87 % of control

CCCn1c2c(c(=O)n(CC)c1=O)S(=O)C(OCC)C(=O)N2 (centres undefined)
inactive: dose: 78.0 mg/kg/injection, schedule: Q01DX Z (ip), vehicle: other 92 % of control | dose: 116.0 mg/kg/injection, schedule: Q01DX Z (ip), vehicle: other 97 % of control and 104 % of control | dose: 175.0 mg/kg/injection, schedule: Q01DX Z (ip), vehicle: other 98 % of control and 87 % of control | dose: 262.5 mg/kg/injection, schedule: Q01DX Z (ip), vehicle: other 93 % of control and 103 % of control

COc1cc(C2(O)C=C(C)C(=O)C=C2C)c(OC)cc1C (centres undefined)
inactive: dose: 50.0 mg/kg/injection, schedule: Q01DX001 (ip), vehicle: Klucel (hydroxypropylcellulose) (HPC) 92 % of control | [9] 87 % of control | [10] 86 % of control

O=C(O)CCC(=O)Nc1ccccc1CC(c1c[nH]c2ccccc12)c1c[nH]c2ccccc12
inactive: dose: 50.0 mg/kg/injection, schedule: Q01DX001 (ip), vehicle: saline 106 % of control | [11] 104 % of control | [12] 106 % of control | [13] 104 % of control

COc1ccc(OC)c(NC(=O)c2cccc(N(CCCl)CCCl)c2)c1
inactive: [14] 98 % of control | [15] 95 % of control | [16] 104 % of control

Cc1cccc(NC(=O)NC(C)C)c1C
inactive: [1] 109 % of control | [17] 102 % of control | [2] 109 % of control | [18] 96 % of control | [3] 102 % of control | [19] 98 % of control

O=[N+]([O-])c1ccc(OCCOCCOc2ccc(S(=O)(=O)F)cc2)c(Cl)c1
inactive: dose: 100.0 mg/kg/injection, schedule: Q01DX001 (ip), vehicle: saline with Tween-80 89 % of control | dose: 200.0 mg/kg/injection, schedule: Q01DX001 (ip), vehicle: saline with Tween-80 97 % of control | dose: 400.0 mg/kg/injection, schedule: Q01DX001 (ip), vehicle: saline with Tween-80 103 % of control

[Cl][Dy]([Cl])[Cl]
inactive: dose: 100.0 mg/kg/injection, schedule: Q04DX003 (ip), vehicle: saline 103 % of control | dose: 200.0 mg/kg/injection, schedule: Q04DX003 (ip), vehicle: saline 114 % of control

CC(C)(Cl)C(N)=O
inactive: [11] 101 % of control | [12] 103 % of control | [13] 97 % of control

Cc1cc2nc(-c3cc4cc(Cl)cc(Cl)c4oc3=O)[nH]c2cc1C
inactive: dose: 100.0 mg/kg/injection, schedule: Q04DX002 (ip), vehicle: Klucel (hydroxypropylcellulose) (HPC) 108 % of control | dose: 200.0 mg/kg/injection, schedule: Q04DX002 (ip), vehicle: Klucel (hydroxypropylcellulose) (HPC) 104 % of control | dose: 400.0 mg/kg/injection, schedule: Q04DX002 (ip), vehicle: Klucel (hydroxypropylcellulose) (HPC) 115 % of control

O=C(COc1cccc(Cl)c1)Nc1cc[n+](Cc2ccc(S(=O)(=O)F)cc2)cc1
inactive: dose: 25.0 mg/kg/injection, schedule: Q04DX003 (ip), vehicle: saline with Tween-80 102 % of control | dose: 50.0 mg/kg/injection, schedule: Q04DX003 (ip), vehicle: saline with Tween-80 100 % of control | [5] 97 % of control and 113 % of control

C=CCNC(=S)Nc1ccc(N(C)C)cc1
inactive: dose: 50.0 mg/kg/injection, schedule: Q01DX009 (ip), vehicle: saline with Tween-80 94 % of control | [4] 100 % of control | [5] 103 % of control | [6] 103 % of control | [7] 95 % of control

COC12C(CC3C4CC=C5CC(OC(C)=O)CCC5(C)C4CCC31C)C(c1ccccc1)=NN2c1ccccc1 (centres undefined)
inactive: dose: 12.5 mg/kg/injection, schedule: Q04DX002 (ip), vehicle: Klucel (hydroxypropylcellulose) (HPC) 101 % of control | dose: 25.0 mg/kg/injection, schedule: Q04DX002 (ip), vehicle: Klucel (hydroxypropylcellulose) (HPC) 104 % of control | dose: 50.0 mg/kg/injection, schedule: Q04DX002 (ip), vehicle: Klucel (hydroxypropylcellulose) (HPC) 101 % of control

CC1(C)COC(c2ccc3ccccc3c2)OC1
inactive: [17] 96 % of control | [18] 101 % of control | [19] 100 % of control

CC(C)(C)SC1CC(=O)OC1=O (centres undefined)
inactive: dose: 87.5 mg/kg/injection, schedule: Q04DX003 (ip), vehicle: saline with Tween-80 102 % of control | dose: 175.0 mg/kg/injection, schedule: Q04DX003 (ip), vehicle: saline with Tween-80 106 % of control | dose: 350.0 mg/kg/injection, schedule: Q04DX003 (ip), vehicle: saline with Tween-80 109 % of control

CO/N=C/c1ccc([N+](=O)[O-])cc1
inactive: [9] 96 % of control | [10] 95 % of control | dose: 400.0 mg/kg/injection, schedule: Q01DX001 (ip), vehicle: Klucel (hydroxypropylcellulose) (HPC) 98 % of control

CC(=O)Nc1c(Cl)cc2c(c1Cl)Cc1cc(N=Cc3ccc4c(c3)OCO4)ccc1-2
inactive: [14] 91 % of control | [15] 101 % of control | [16] 100 % of control

[N-]=[N+]=NC1=NN2NNN=C2C(N)=C1
inactive: [11] 105 % of control | [12] 107 % of control
